Experimental findings from ChEMBL document CHEMBL5360627, “Total Synthesis of Kuwanons A and B and Discovery of Their Antibacterial Mechanism” (2023) are described below.

≈ marks a conversion by molar mass, not a printed value. Calls of active or inactive are those of the source. No cut-off for these calls is given here.

Usually MIC stands for the least concentration at which growth counts as inhibited.

Assay [1] has as its system Staphylococcus aureus. The assay can be described thus: Bactericidal activity against Staphylococcus aureus ATCC 29213 assessed as reduction in bacterial growth at 8 microg/ml measured at 2 hrs by time-kill assay. In kind it is functional, organism-based. Conditions: dose 8.0 µg/ml.
Assay [2] has as its system Staphylococcus aureus. The assay can be described thus: Bactericidal activity against Staphylococcus aureus ATCC 29213 assessed as reduction in bacterial growth at 8 times MIC measured at 8 hrs by time-kill assay. It counts as functional.
For assay [3], the system named is Bacillus subtilis. In words: Antibacterial activity against Bacillus subtilis ATCC 6633 assessed as reduction in bacterial growth incubated for 24 hrs by Mueller-Hinton broth based assay. In kind it is functional.
The test system of assay [4] is Enterococcus faecalis. In words: Antibacterial activity against Enterococcus faecalis ATCC 29212 assessed as reduction in bacterial growth incubated for 24 hrs by Mueller-Hinton broth based assay. It counts as functional.
The subject of assay [5] is Staphylococcus epidermidis. The assay can be described thus: Antibacterial activity against Staphylococcus epidermidis ATCC 14990 assessed as inhibition of bacterial growth incubated for 24 hrs by Mueller-Hinton broth based assay. It counts as functional.
Assay [6] deals with Staphylococcus aureus. In words: Antimicrobial activity against Staphylococcus aureus ATCC 29213 assessed as reduction in bacterial growth incubated for 24 hrs by Mueller-Hinton broth based assay. It counts as functional.
The subject of assay [7] is Bacillus subtilis. The assay can be described thus: Potency index, ratio of chloramphenicol MIC to test compound MIC for antibacterial activity against Bacillus subtilis ATCC 6633 assessed as reduction in bacterial growth incubated for 24 hrs by Mueller-Hinton broth based assay. It counts as functional.
Assay [8] concerns Cell membrane. In words: Induction of cell membrane disruption in Staphylococcus aureus ATCC 29213 assessed as appearance of ruptured cell at 8 microg/ml incubated for 2 hrs by scanning electron microscopic analysis. It counts as subcellular. Conditions: dose 8.0 µg/ml.
In assay [9] the test system is Staphylococcus aureus. The assay can be described thus: Antibacterial activity against methicillin resistant-Staphylococcus aureus […] assessed as inhibition of bacterial growth incubated for 18 hrs by CLSI based microdilution method. In kind it is functional.
Assay [10] relates to Staphylococcus aureus. The assay can be described thus: Bactericidal activity against Staphylococcus aureus ATCC 29213 assessed as reduction in bacterial growth at 0.5 to 8 times MIC measured at 24 hrs by time-kill assay. It counts as functional, organism-based.
For assay [11], the system named is Staphylococcus aureus. The assay can be described thus: Potency index, ratio of chloramphenicol MIC to test compound MIC for antimicrobial activity against Staphylococcus aureus ATCC 29213 assessed as reduction in bacterial growth incubated for 24 hrs by Mueller-Hinton broth based assay. In kind it is functional.
For assay [12], the system named is Cell membrane. In words: Disruption of membrane integrity in Staphylococcus aureus ATCC 29213 assessed as increase in red fluorescence at 8 microg/ml incubated for 2 hrs by EthD-III dye based fluorescence microscopic analysis. In kind it is subcellular. The note with it: dose 8.0 µg/ml.
Assay [13] deals with Staphylococcus aureus. The assay can be described thus: Antibacterial activity against Staphylococcus aureus ATCC 29213 assessed as inhibition of bacterial growth incubated for 18 hrs by CLSI based microdilution method. In kind it is functional. Background: In broth dilution the organism is exposed to a series of concentrations in liquid medium.
The subject of assay [14] is Cell membrane. The assay can be described thus: Disruption of membrane integrity in Staphylococcus aureus ATCC 29213 assessed as increase in green fluorescence at 8 microg/ml incubated for 2 hrs by nuc-green dye based fluorescence microscopic analysis. In kind it is subcellular. Conditions: dose 8.0 µg/ml.
For assay [15], the system named is Enterococcus faecalis. In words: Potency index, ratio of chloramphenicol MIC to test compound MIC for antibacterial activity against Enterococcus faecalis ATCC 29212 assessed as reduction in bacterial growth incubated for 24 hrs by Mueller-Hinton broth based assay. In kind it is functional.
The subject of assay [16] is Cell membrane. The assay can be described thus: Induction of cell membrane disruption in Staphylococcus aureus ATCC 29213 assessed as increase in fluorescence intensity at 8 microg/ml incubated for 2 hrs by scanning electron microscopic analysis. It counts as subcellular. Conditions: dose 8.0 µg/ml.
Assay [17] has as its system Staphylococcus aureus. The assay can be described thus: Bactericidal activity against Staphylococcus aureus ATCC 29213 assessed as inhibition of bacterial growth measured at 8 hrs by time-kill assay. In kind it is functional, organism-based.
Assay [18] concerns Staphylococcus epidermidis. In words: Potency index, ratio of chloramphenicol MIC to test compound MIC for antibacterial activity against Staphylococcus epidermidis ATCC 14990 assessed as inhibition of bacterial growth incubated for 24 hrs by Mueller-Hinton broth based assay. It counts as functional.
Assay [19] concerns Cell membrane. In words: Induction of cell membrane disruption in Staphylococcus aureus ATCC 29213 assessed as appearance of wrinkled cell at 8 microg/ml incubated for 2 hrs by scanning electron microscopic analysis. Conditions: dose 8.0 µg/ml. It counts as subcellular.
Assay [20] relates to Cell membrane. In words: Induction of cell membrane disruption in Staphylococcus aureus ATCC 29213 assessed as appearance of uneven cell at 8 microg/ml incubated for 2 hrs by scanning electron microscopic analysis. In kind it is subcellular. The note with it: dose 8.0 µg/ml.
Assay [21] relates to Cell membrane. In words: Induction of cell membrane disruption in Staphylococcus aureus ATCC 29213 assessed as appearance of round cell at 8 microg/ml incubated for 2 hrs by scanning electron microscopic analysis. In kind it is subcellular. Conditions: dose 8.0 µg/ml.
The test system of assay [22] is Staphylococcus aureus. The assay can be described thus: Bactericidal activity against Staphylococcus aureus ATCC 29213 assessed as reduction in bacterial growth at 8 microg/ml measured immediately by time-kill assay. Conditions: dose 8.0 µg/ml. It counts as functional, organism-based.

For the compound `CC1(C)S[C@@H]2[C@H](NC(=O)[C@H](N)c3ccccc3)C(=O)N2[C@H]1C(=O)O` [AMPICILLIN], the outcome with Staphylococcus aureus [1] was inactive. The Activity in the assay on Staphylococcus aureus [2] is listed as 5 log10CFU/ml. Moreover, the minimal inhibitory concentration (MIC) came to 8 µg/mL (≈ 22.9 µM) in the assay on Bacillus subtilis [3], 0.5 µg/mL (≈ 1.43 µM) with Enterococcus faecalis [4], 16 µg/mL (≈ 45.8 µM) in assay [5] and 0.5 µg/mL (≈ 1.43 µM) with Staphylococcus aureus [6].

Consider `CC(C)=CCc1c(-c2ccc3c(c2O)C=CC(C)(C)O3)oc2cc(O)cc(O)c2c1=O`, for which the Ratio (with Bacillus subtilis [7]; in the assay on Staphylococcus aureus [11]; with Enterococcus faecalis [15]; in [18]) was 8 each time. For the same compound, the Activity in the assay on Staphylococcus aureus [2] is 2 log10CFU/ml; in the assay on Staphylococcus aureus [17], “Dose-Dependent Effect”. Moreover, the result with Cell membrane [8], in the assay on Cell membrane [12], with Cell membrane [14], in the assay with Cell membrane [16], in the assay on Cell membrane [19] and in the assay with Cell membrane [20] was Active. Also, the outcome in the assay with Cell membrane [21] and with Staphylococcus aureus [22] was Active. Further, the minimal inhibitory concentration (MIC) was 4 µg/mL (≈ 9.51 µM) in the assay with Staphylococcus aureus [9]; 1 µg/mL (≈ 2.38 µM) in the assay with Bacillus subtilis [3]; 4 µg/mL (≈ 9.51 µM) in the assay on Staphylococcus aureus [13]; 1 µg/mL (≈ 2.38 µM) with Enterococcus faecalis [4]; 1 µg/mL (≈ 2.38 µM) in assay [5]; 1 µg/mL (≈ 2.38 µM) in the assay with Staphylococcus aureus [6]. Also, the result in the assay on Staphylococcus aureus [10] was inactive.

For `CC(C)=CCc1c(-c2ccc(O)c3c2OC(C)(C)C=C3)oc2cc(O)cc(O)c2c1=O` [KUWANON A], the MIC came out at 8 µg/mL (≈ 19 µM) with Staphylococcus aureus [9]; 4 µg/mL (≈ 9.51 µM) in the assay on Bacillus subtilis [3]; 8 µg/mL (≈ 19 µM) with Staphylococcus aureus [13]; 8 µg/mL (≈ 19 µM) with Enterococcus faecalis [4]; 2 µg/mL (≈ 4.76 µM) in assay [5]; 4 µg/mL (≈ 9.51 µM) in the assay with Staphylococcus aureus [6].

In the case of `O=C(N[C@H](CO)[C@H](O)c1ccc([N+](=O)[O-])cc1)C(Cl)Cl` [CHLORAMPHENICOL], the MIC in the assay with Bacillus subtilis [3] amounted to 8 µg/mL (≈ 24.8 µM); with Enterococcus faecalis [4], 8 µg/mL (≈ 24.8 µM); in assay [5], 8 µg/mL (≈ 24.8 µM); in the assay on Staphylococcus aureus [6] it was 16 µg/mL (≈ 49.5 µM).
